# Assay: recombinant barcode read abundance after kanamycin selection (control-corrected) (log10(CPM+1)); higher = more efficient recombination; sequences stand for … in AGTGCAGAGAAAATCGGCCAGTTTTCTCTGCCTGCAGTCCGCATGCCGT…AGATTTATGCAGCGGACTGCCTTTCTCCCAAAGTGATAAACCGGACAGTATCATGGACCGGTTTTCCCGGTAATCCGTATTTGCAAGGTTGGTTTCACT; site = the 11-nt target
# Outline: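 Duplicate cultures were plated either on chloramphenicol/ampicillin LB agar, serving as control, or on chloramphenicol/ampicillin/kanamycin with 0.1 mM IPTG. These came from a pooled E. coli library co-electroporated with a donor plasmid, each member pairing a target with an IS621 bridge RNA target-binding loop. Recombination efficiency equals averaged, control-corrected counts per million of recombinant-junction barcodes. It is listed as log10(CPM+1).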
# 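Note: IS621 recombinase and bridge RNA in Escherichia coli cells.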
row,Sequence,recombinant barcode read abundance (log10)
1,CTACGTCCTTGGGTTCTAACCTGTTGCTA (site CTACGTCCTGA),0.425
2,CTACGTCCTTGGGTTCTAACCTGTTGCTA (site CTACGTCCTTA),0.795
3,CTACTAACTTGGGTTCTAACCTGTTGCGT (site CTACTAACTAA),0.13
4,CTACTAACTTGGGTTCTAACCTGTTGCGT (site CTACTAACTAC),1.07
5,CTACTAACTTGGGTTCTAACCTGTTGCGT (site CTACTAACTAG),0.339
6,CTACTAACTTGGGTTCTAACCTGTTGCGT (site CTACTAACTAT),0.129
7,CTACTATCTTGGGTTCTAACCTGTTGCGC (site CTACTATCTGC),0.937
8,CTACTATCTTGGGTTCTAACCTGTTGCGC (site TATAACACTCG),0.188
9,CTACTATCTTGGGTTCTAACCTGTTGCGT (site CTACTATCTAC),1.58
10,CTACTATCTTGGGTTCTAACCTGTTGCGT (site TCGAGTGCTCT),0.143
11,CTACTTCCTTGGGTTCTAACCTGTTGCGT (site CTACCTCCTAC),0.215
12,CTACTTCCTTGGGTTCTAACCTGTTGCGT (site CTACTTCCTAC),1.69
13,CTACTTGCTTGGGTTCTAACCTGTTGCAA (site CTAATTGCTTT),0.364
14,CTACTTGCTTGGGTTCTAACCTGTTGCAA (site CTACTTGCTTT),0.326
15,CTACTTGCTTGGGTTCTAACCTGTTGCAA (site CTAGTTGCTTT),0.239
16,CTACTTGCTTGGGTTCTAACCTGTTGCAA (site CTATTTGCTTT),0.592
17,CTAGACACTTGGGTTCTAACCTGTTGCCT (site CTAGACACTAG),0.612
18,CTAGACACTTGGGTTCTAACCTGTTGCCT (site CTCGACACTAG),0.0911
19,CTAGACACTTGGGTTCTAACCTGTTGCCT (site CTGGACACTAG),0.0451
20,CTAGACACTTGGGTTCTAACCTGTTGCCT (site CTTGACACTAG),0.512
21,CTAGACCCTTGGGTTCTAACCTGTTGCGG (site ACGCGTTCTAT),0.25
22,CTAGACCCTTGGGTTCTAACCTGTTGCGG (site CTAGACCCTCC),2.56

row,Sequence,recombinant barcode read abundance (log10)
1,CTAGACGCTTGGGTTCTAACCTGTTGCCT (site CAAGACGCTAG),1.41
2,CTAGACGCTTGGGTTCTAACCTGTTGCCT (site CTAGACGCTAG),0.677
3,CTAGACTCTTGGGTTCTAACCTGTTGCAT (site CTAGACTCTAT),2.88
4,CTAGACTCTTGGGTTCTAACCTGTTGCAT (site CTAGACTCTCT),1.75
5,CTAGACTCTTGGGTTCTAACCTGTTGCAT (site CTAGACTCTGT),0.161
6,CTAGACTCTTGGGTTCTAACCTGTTGCAT (site CTAGACTCTTT),0.365
7,CTAGCGACTTGGGTTCTAACCTGTTGCGG (site CTAACGACTCC),0.637
8,CTAGCGACTTGGGTTCTAACCTGTTGCGG (site CTAGCGACTCC),1.85
9,CTAGCGTCTTGGGTTCTAACCTGTTGCTT (site CTAGAGTCTAA),0.115
10,CTAGCGTCTTGGGTTCTAACCTGTTGCTT (site CTAGCGTCTAA),0.776
11,CTAGCTCCTTGGGTTCTAACCTGTTGCAG (site CTAGCGGCTCT),0.0535
12,CTAGCTCCTTGGGTTCTAACCTGTTGCAG (site CTAGCTCCTCT),1.54
13,CTAGGACCTTGGGTTCTAACCTGTTGCCA (site CTAGGACCTTG),1.27
14,CTAGGACCTTGGGTTCTAACCTGTTGCCA (site CTAGGAGCTAG),0.233
15,CTAGGAGCTTGGGTTCTAACCTGTTGCTT (site CTAGGAGCTAA),0.924
16,CTAGGAGCTTGGGTTCTAACCTGTTGCTT (site CTAGGAGCTCA),0.211
17,CTAGGAGCTTGGGTTCTAACCTGTTGCTT (site CTAGGAGCTGA),0.0912
18,CTAGGAGCTTGGGTTCTAACCTGTTGCTT (site CTAGGAGCTTA),0.0974
19,CTAGGATCTTGGGTTCTAACCTGTTGCAT (site CTAGGATCTAT),2.45
20,CTAGGATCTTGGGTTCTAACCTGTTGCAT (site CTAGGATCTTG),0.301
21,CTAGGCTCTTGGGTTCTAACCTGTTGCGG (site CTACGCTCTTC),0.095
22,CTAGGCTCTTGGGTTCTAACCTGTTGCGG (site CTAGGCTCTCC),2.32

row,Sequence,recombinant barcode read abundance (log10)
1,CTAGGTACTTGGGTTCTAACCTGTTGCTT (site ATAGGTACTAA),0.0337
2,CTAGGTACTTGGGTTCTAACCTGTTGCTT (site CTAGGTACTAA),0.0303
3,CTAGTAACTTGGGTTCTAACCTGTTGCCA (site ACGCGTGCTCC),0.0245
4,CTAGTAACTTGGGTTCTAACCTGTTGCCA (site CTAGTAACTTG),0.351
5,CTAGTTACTTGGGTTCTAACCTGTTGCCT (site CTAATTACTAG),0.0479
6,CTAGTTACTTGGGTTCTAACCTGTTGCCT (site CTACTTACTAG),0.363
7,CTAGTTACTTGGGTTCTAACCTGTTGCCT (site CTAGTTACTAG),1.11
8,CTAGTTACTTGGGTTCTAACCTGTTGCCT (site CTATTTACTAG),0.177
9,CTATCCTCTTGGGTTCTAACCTGTTGCAT (site CTAACCTCTAT),0.233
10,CTATCCTCTTGGGTTCTAACCTGTTGCAT (site CTACCCTCTAT),1.01
11,CTATCCTCTTGGGTTCTAACCTGTTGCAT (site CTAGCCTCTAT),0.537
12,CTATCCTCTTGGGTTCTAACCTGTTGCAT (site CTATCCTCTAT),1.06
13,CTATGACCTTGGGTTCTAACCTGTTGCTG (site CTATGACCTCA),1.91
14,CTATGACCTTGGGTTCTAACCTGTTGCTG (site TCGGAGTCTGC),0.0682
15,CTATGCCCTTGGGTTCTAACCTGTTGCGA (site CTATGCCCTTA),0.129
16,CTATGCCCTTGGGTTCTAACCTGTTGCGA (site CTATGCCCTTC),2.02
17,CTATGGACTTGGGTTCTAACCTGTTGCAG (site CTATGGACTAT),0.391
18,CTATGGACTTGGGTTCTAACCTGTTGCAG (site CTATGGACTCT),2.39
19,CTATGGACTTGGGTTCTAACCTGTTGCAG (site CTATGGACTGT),0.348
20,CTATGGACTTGGGTTCTAACCTGTTGCAG (site CTATGGACTTT),0.0535
21,CTATGTGCTTGGGTTCTAACCTGTTGCCT (site CTATGTGCTAA),0.158
22,CTATGTGCTTGGGTTCTAACCTGTTGCCT (site CTATGTGCTAC),0.298

row,Sequence,recombinant barcode read abundance (log10)
1,CTATGTGCTTGGGTTCTAACCTGTTGCCT (site CTATGTGCTAG),1.62
2,CTATGTGCTTGGGTTCTAACCTGTTGCCT (site CTATGTGCTAT),0.305
3,CTATGTGCTTGGGTTCTAACCTGTTGCGA (site CTATGTGCTTC),1.87
4,CTATGTGCTTGGGTTCTAACCTGTTGCGA (site GTATGTGCTTT),0.139
5,CTATGTGCTTGGGTTCTAACCTGTTGCGT (site CTATGTGCTAA),0.0372
6,CTATGTGCTTGGGTTCTAACCTGTTGCGT (site CTATGTGCTAC),1.54
7,CTATGTGCTTGGGTTCTAACCTGTTGCGT (site CTATGTGCTAG),0.0548
8,CTATGTGCTTGGGTTCTAACCTGTTGCGT (site CTATGTGCTAT),0.298
9,CTATTCCCTTGGGTTCTAACCTGTTGCCT (site CTATTCACTAG),0.1
10,CTATTCCCTTGGGTTCTAACCTGTTGCCT (site CTATTCCCTAG),1.52
11,CTATTCCCTTGGGTTCTAACCTGTTGCCT (site CTATTCGCTAG),0.286
12,CTATTCCCTTGGGTTCTAACCTGTTGCCT (site CTATTCTCTAG),0.483
13,CTATTGTCTTGGGTTCTAACCTGTTGCGG (site CTATTGTCTAC),0.714
14,CTATTGTCTTGGGTTCTAACCTGTTGCGG (site CTATTGTCTCC),1.35
15,CTATTGTCTTGGGTTCTAACCTGTTGCGG (site CTATTGTCTGC),0.249
16,CTATTGTCTTGGGTTCTAACCTGTTGCGG (site CTATTGTCTTC),0.17
17,CTCAATACTTGGGTTCTAACCTGTTGCGA (site CTCAATACTTC),1.15
18,CTCAATACTTGGGTTCTAACCTGTTGCGA (site CTCAATTCTTT),0.0435
19,CTCAGACCTTGGGTTCTAACCTGTTGCTG (site CTCAGACCTCA),0.037
20,CTCAGACCTTGGGTTCTAACCTGTTGCTG (site TCACACACTAG),0.463
